According to PMC12903969, “Discovery of a Novel and Potent Kir4.1 Inhibitor as a Safe and Rapid‐Onset Antidepressant Agent in Mice” (Advanced Science, 2025):
Values joined by “and” are separate entries in the source; they are usually repeats but may differ in a detail not shown here. Identical values can stand only once. Like-named read-outs stand apart in the source and are kept apart here.

How the values were obtained:
Kir2.2 = molecular target: T1, Kir2.2 (Homo sapiens, UniProt Q14500); assay: Whole-cell patch clamp, Kir2.2; type: cell-based; conditions: mean ± SEM
T1 construct: host or cells: CHO-K1
Procedure: (§1) Plasmids encoding WT human potassium channels Kir1.1, Kir2.1, Kir2.2, Kir4.1, and Kir4.2 were obtained from the Beijing Genomics Institute. All point mutations were constructed using the QuickChange II Site‐Directed Mutagenesis Kit (Stratagene) and subsequently verified by sequencing.
CHO‐K1 cells were maintained in DMEM/F12 growth medium containing 10% fetal bovine serum. Plasmids encoding the target genes (3600 ng) and enhanced green fluorescent protein (400 ng) were cotransfected into cells using Lipofectamine 2000 (Invitrogen) in accordance with the manufacturer's instructions. Cells were seeded onto poly‐d‐lysine (PDL)‐coated glass coverslips 1 h prior to electrophysiological recordings. […]
Whole‐cell patch‐clamp recordings were obtained either in transiently transfected CHO‐K1 cells or in primary cultured astrocytes at room temperature using standard patch‐clamp techniques with an Axopatch‐700B amplifier (Axon Instruments). […] Macroscopic currents generated by expressed potassium channels were recorded under the voltage‐clamp conditions with an internal pipette solution composed of (in mM): 140 KCl, 5 NaCl, 1 CaCl2, 1 MgCl2, 10 HEPES, and 10 EGTA, pH 7.2 adjusted with KOH. […] Astrocytic resting membrane potentials were recorded under current‐clamp conditions (I = 0 pA) using standard internal and external solutions, determined immediately after achieving whole‐cell mode.

Kir4.1 T128A = molecular target: T2, Kir4.1 T128A (Homo sapiens, UniProt P78508, T128A); assay: Whole-cell patch clamp, Kir4.1 point mutant T128A; type: cell-based
T2 construct: expressed in transfected cells; host or cells: CHO-K1
T2 sequence (P78508 1-379 T128A): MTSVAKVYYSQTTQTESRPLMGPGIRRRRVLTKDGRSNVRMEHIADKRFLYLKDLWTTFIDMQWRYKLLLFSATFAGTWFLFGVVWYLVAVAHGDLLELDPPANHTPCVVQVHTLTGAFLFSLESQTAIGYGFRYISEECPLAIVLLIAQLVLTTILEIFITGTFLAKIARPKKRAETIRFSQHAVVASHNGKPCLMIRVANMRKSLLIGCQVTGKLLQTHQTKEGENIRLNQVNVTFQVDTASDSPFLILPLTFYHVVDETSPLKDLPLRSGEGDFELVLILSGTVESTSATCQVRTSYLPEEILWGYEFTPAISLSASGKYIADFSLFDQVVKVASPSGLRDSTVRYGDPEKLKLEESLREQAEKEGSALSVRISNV
Procedure: as §1
CHO‐K1 cells were maintained in DMEM/F12 growth medium containing 10% fetal bovine serum. Plasmids encoding the target genes (3600 ng) and enhanced green fluorescent protein (400 ng) were cotransfected into cells using Lipofectamine 2000 (Invitrogen) in accordance with the manufacturer's instructions. Cells were seeded onto poly‐d‐lysine (PDL)‐coated glass coverslips 1 h prior to electrophysiological recordings. All cells were cultured under standard conditions of 5% CO2 at 37 °C.
Whole‐cell patch‐clamp recordings were obtained either in transiently transfected CHO‐K1 cells or in primary cultured astrocytes at room temperature using standard patch‐clamp techniques with an Axopatch‐700B amplifier (Axon Instruments). The signals were filtered at 2 kHz and sampled at 20 kHz using the Digidata 1440A interface (Axon Instruments). The resistance of borosilicate glass pipettes was typically 2–4 MΩ when filled with the internal solution. Drug application was facilitated using a BPS perfusion system (ALA Scientific Instruments). Macroscopic currents generated by expressed potassium channels were recorded under the voltage‐clamp conditions with an internal pipette solution composed of (in mM): 140 KCl, 5 NaCl, 1 CaCl2, 1 MgCl2, 10 HEPES, and 10 EGTA, pH 7.2 adjusted with KOH. The external solution contained (in mM): 140 NaCl, 5 KCl, 2 CaCl2, 1 MgCl2, 10 glucose, and 10 HEPES, pH 7.4 adjusted with NaOH. Currents were elicited with a hyperpolarized voltage at −120 mV from the holding potential of −80 mV, followed by a ramp voltage depolarizing to +50 mV. Astrocytic resting membrane potentials were recorded under current‐clamp conditions (I = 0 pA) using standard internal and external solutions, determined immediately after achieving whole‐cell mode.

C57BL/6J mice = assay: Open field test (OFT) after chronic administration; type: in vivo; conditions: chronic 10 mg kg−1 per day
Procedure: This test was used to assess anxiety‐related behaviors in the mice. C57BL/6J mice were individually habituated to a 40 × 40 × 40 cm^3 open field arena under dim light for […]. Locomotor activity during the final 5 min was digitally recorded (30 fps) and analyzed using Tracking Master (Future Life Science (Shanghai) Co., Ltd., Shanghai, China). The primary endpoints included the total ambulatory distance (cm) and center‐zone exploration frequency (20 × 20 cm^2 central area).

mice = assay: Treadmill test (TT); type: in vivo; conditions: chronic 10 mg kg−1 per day
Procedure: This test was designed to quantify locomotor endurance in rodents. The time (300 s) and speed (maximum: 30 rpm) parameters for the treadmill were set using a digital panel and the mice were placed in lanes. Gentle electrical probes (0.3 mA) served as motivational stimuli. Total distance traveled was automatically recorded using rotary encoder integration.

T1 sequence (Q14500 whole entry): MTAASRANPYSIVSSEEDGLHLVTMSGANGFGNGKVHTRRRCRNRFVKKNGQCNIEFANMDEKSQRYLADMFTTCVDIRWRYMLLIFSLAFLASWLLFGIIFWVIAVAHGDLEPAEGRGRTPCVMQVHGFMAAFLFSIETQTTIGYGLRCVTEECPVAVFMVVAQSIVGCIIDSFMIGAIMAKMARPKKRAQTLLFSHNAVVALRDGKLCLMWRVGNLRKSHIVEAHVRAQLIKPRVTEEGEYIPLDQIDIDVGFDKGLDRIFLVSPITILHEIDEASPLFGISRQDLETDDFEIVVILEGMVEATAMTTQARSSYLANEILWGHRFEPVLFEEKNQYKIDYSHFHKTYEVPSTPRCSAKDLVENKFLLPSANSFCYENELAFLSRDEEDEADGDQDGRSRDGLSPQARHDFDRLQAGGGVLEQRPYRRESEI

## c1ccc2c(c1)oc1ccc(Nc3ccnc(NCCCN4CCOCC4)n3)cc12 [JX3212, N^4-(dibenzo[b,d]furan-2-yl)-N^2-(3-morpholinopropyl)pyrimidine-2,4-diamine]
Kir2.2
  inhibition at 3 µM: 14.3 ± 8.36%
Kir4.1 T128A; 3 µM, mean ± SEM, read-out: current inhibition, Kir4.1 T128A
  inhibition at 3 µM: 33.9 ± 4.58%
Kir4.1 T128A; JX3212 3 µM (Fig 2D)
  Mutation: T128A inhibition, single recordings: 37.4256 and 28.9608 and 38.1757
Kir4.1 T128A; JX3212 3 µM (Fig 2D), read-out: Mutation: T128A inhibition, single recordings
  inhibition at 3 µM: 31.1%
C57BL/6J mice
  OFT total and central distance traveled (in words): no pronounced differences
mice
  treadmill running distance vs vehicle (in words): showed no significant effects
